Data published in patent publication US11185523B2, “Use of bipolar trans carotenoids with chemotherapy and radiotherapy for treatment of cancer” (DIFFUSION PHARMACEUTICALS LLC, priority 2016, dated 2021).
Entries after “also recorded” stand apart in the source; their conditions may differ.

How the values were obtained:
[1] = test system: DMBA breast tumors; test: DMBA breast tumor model, TSC before chemotherapy; type: in vivo
[2] = test system: Hemorrhagic Shock; test: Pre-clinical efficacy study: Hemorrhagic Shock; type: in vivo
From the text: (§1) It has also been determined that several non-cancer disorders are beneficially treated utilizing an administration regimen of a bipolar trans carotenoid such as TSC, as described below.

[3] = test system: hypoxic tissue; test: Reoxygenation of hypoxic tissue after low and high dose; type: in vivo, human; settings: humans
From the text: With bipolar trans carotenoids such as TSC, there are discrete concentrations that produce efficacy in causing maximum oxygen partial pressure in animals or humans.

[4] = test system: VEGF A gene; test: Expression of HIF1 targeted genes in hypoxic conditions; settings: gene upregulated with hypoxia
From the text: The subject disclosure relates to the treatment of various tumors and/or cancers (i.e., gliobastoma, pancreatic cancer, etc.). It is well established that tumors are hypoxic with many tumor types being highly hypoxic. Further, it is known that hypoxic tumors are more resistant to radiotherapy and chemotherapy. Through HIF1 alpha up-regulation, hypoxia is associated with multiple negative effects that lead to aggressive tumor phenotypes. These effects include increased angiogenesis, increased metastasis, as well as increased resistance to chemotherapy and radiation therapy. Hypoxia via HIF1a affects many genes involved in cancer progression. Bipolar trans carotenoids such as TSC alter expression of HIF1 targeted genes in hypoxic conditions.

[5] = test system: Memory Recall; test: Pre-clinical efficacy study: Memory Recall; type: in vivo; settings: Rat
From the text: as §1

[6] = test system: Myocardial Infarction; test: Pre-clinical efficacy study: Myocardial Infarction; type: in vivo; settings: Pig
From the text: as §1

[7] = test system: DMBA breast tumors; test: DMBA breast tumor model, TSC before chemotherapy; type: in vivo; settings: for tumor growth, timing of TSC injection: Day 2, FIG. 5
Experimental: Breast tumors were induced through injection of DMBA (dimethylbenzantracene) under the mammary tissue of female rats. The tumors usually grow in most rats and reach measurable conditions after 10 days.
The following studies used a method in which a 3-mL syringe is filled first with 1 ml of DMBA dissolved in sunflower seed oil (20 mg DMBA per mL of solution). Following that, 2 mL's of air are pulled into the syringe. The needle of the syringe is then inserted under the mammary tissue near a hind leg and the air in the syringe is carefully injected. The injection of the air forms a “pocket”, and then the 1 mL of DMBA solution is injected into that pocket.
After the tumors have grown up (about 10 days), their volumes are estimated by measuring the diameter (d) and the length (L) of the football-shaped tumors formed. This is done using calipers after feeling the tumor with one's fingers. To estimate the volume of the tumor, you multiply the diameter squared times the length and divide by 2: Tumor volume (in mm3)={(d in mm)^22}×(L in mm)
TSC or saline (controls) was injected in the tail vein of the rats at a volume of 0.1 mL and a dose of 0.25 mg/kg TSC about 1-2 hours before the chemotherapeutic agent was injected intraperitoneally (IP) in the rats.
In order to understand which dosages are efficacious when used with chemotherapy, a rat model of breast tumors was used. The model involves injecting the chemical dimethylbenzanthracene (DMBA) under the mammary gland of a female Sprague-Dawley rat. After a few days, tumors begin to grow and can be measured by feeling the football-shaped tumor under the skin and measured using calipers.

[8] = test system: Critical Limb Ischemia; test: Pre-clinical efficacy study: Critical Limb Ischemia; type: in vivo; settings: Mouse
From the text: as §1

[9] = test system: Wound Healing; test: Pre-clinical efficacy study: Wound Healing; type: in vivo; settings: Pig
From the text: as §1

[10] = test system: Ischemic Stroke; test: Pre-clinical efficacy study: Ischemic Stroke; type: in vivo
From the text: as §1

[11] = Phase 1 and Phase 2 clinical trials of TSC, safety; type: in vivo; settings: 148 human subjects
From the text: A Phase ½ clinical trial was recently completed examining TSC in patients with GBM. The Phase ½ clinical trial in GBM enrolled 59 patients with newly diagnosed disease that received TSC in conjunction with radiation therapy (RT) and temozolomide (TMZ). In the Phase I portion of the trial TSC was initially administered three times per week at half-dose to three patients prior to radiation. Six additional patients received full dose TSC for six weeks in combination with radiation. […] Fifty additional patients were enrolled in the Phase II trial at full dose TSC in combination with TMZ and RT. Four weeks after completion of RT, all patients resumed TMZ for five days every four weeks, but no further TSC was administered.

[12] = Stability of TSC versus pH; type: physicochemical; settings: dependence on pH
Experimental: Mannitol can be used to adjust osmolality and its concentration varies depending on the concentration of other ingredients. The glycine is held constant. […] The use of glycine is compatible with lyophilization. Alternatively, the TSC and cyclodextrin is formulated using a 50 mM bicarbonate or other buffers, in place of the glycine.

[13] = test system: Cancer Chemosensitizer; test: Pre-clinical efficacy study: Cancer Chemosensitizer; type: in vivo; settings: Rat
From the text: as §1

[14] = Change in partial pressure of oxygen, low vs high efficacious dose (FIG. 1); type: in vivo; settings: FIG. 1 hyperoxic rat
Experimental: FIG. 1 illustrates the change in partial pressure of oxygen of a hyperoxic rat resulting from administration of a low efficacious dose amount compared to a high efficacious dose amount of TSC.
It has been discovered that for a mammal, there are two concentrations of a bipolar trans carotenoid, such as TSC, that result in increased oxygen partial pressure—the “low” dose and the “high” dose—in a tumor. For humans, the low dose range is 0.15-0.35 mg/kg and the high dose range is 0.75 to 2.0 mg/kg. Both doses result in approximately the same maximum increase in oxygen partial pressure.

[15] = test system: Parkinson's Disease; test: Pre-clinical efficacy study: Parkinson's Disease; type: in vivo; settings: Rat
From the text: as §1

[16] = test system: Hemorrhagic Stroke; test: Pre-clinical efficacy study: Hemorrhagic Stroke; type: in vivo; settings: Rat
From the text: as §1

[17] = test system: Cancer: Radiation Sensitizer; test: Pre-clinical efficacy study: Cancer: Radiation Sensitizer; type: in vivo
From the text: as §1

CC(/C=C/C=C(\C)C(=O)[O-])=C\C=C\C=C(C)\C=C\C=C(/C)C(=O)[O-].[Na+].[Na+] [TSC, trans sodium crocetinate]
effect on tumor volume with cisplatin ([1]; low dose (for rats) 0.1 mg/kg TSC IV 50 minutes before chemotherapy): not effective | effect on tumor volume with gemcitabine ([1]; low dose of TSC 50 minutes before chemotherapy): not effective | Best Dosage ([2]; Pig): Low | Best Dosage ([2]; Rat, low dose (for rats) 0.1 mg/kg, high 0.25 mg/kg): Low | duration of maximum reoxygenation ([3]; high dose of 0.75-2.0 mg/kg, e.g. 1.5 mg/kg): lasts for over an hour | duration of maximum reoxygenation ([3]; low dose of 0.15-0.35 mg/kg): lasts for a short time | time of maximum reoxygenation of hypoxic tissue after injection ([3]; low dose of 0.15-0.35 mg/kg, e.g. 0.25 mg/kg): 50 min | VEGF A gene expression [4]: down regulated | Best Dosage [5]: High | Best Dosage [6]: Low | effect on tumor volume with cisplatin ([7]; high dose (for rats) 0.25 mg/kg TSC 2 hours before 1 mg/kg cisplatin IP on days 0, 4, 11, 18, FIG. 2): efficacious; also recorded: significant improvement in tumor volume over the control | tumor growth, timing of TSC injection ([7]; high dose TSC 2 hours before gemcitabine 7.5 mg/kg): best and best results | pseudoprogression (increase in tumor volume on day 7) ([7]; high dose TSC 2 hours prior to doxorubicin): Pseudoprogression was also seen | tumor growth with doxorubicin ([7]; high dose TSC 2 hours prior to doxorubicin, FIG. 7): marked reduction in tumor growth in comparison with the control group | pseudoprogression (increase in tumor volume on day 7) ([7]; high dose TSC 2 hours prior to temozolomide, FIG. 6): pseudoprogression was seen | pseudoprogression ([7]; high dose TSC 2 hrs. prior to paclitaxel): Pseudoprogression was also seen | tumor growth with paclitaxel ([7]; high dose TSC 2 hrs. prior to paclitaxel, Days 0, 4, 8, 14, FIG. 8): marked reduction in tumor growth in comparison with the control group | tumor growth, timing of TSC injection ([7]; high dose TSC concurrently, 1 hour before or 2 hours before gemcitabine 7.5 mg/kg): reduced tumor growth relative to control | tumor growth with gemcitabine ([7]; high dose of TSC 2 hours before 5 mg/kg gemcitabine IP on days 0, 3, FIG. 4): substantially less tumor growth than those in the control group | effect on tumor volume with gemcitabine ([7]; high dose of TSC 2 hours before 10 mg/kg gemcitabine IP on days 0, 3, day 3, FIG. 3): efficacious; also recorded: significant decrease in tumor volume | Best Dosage [8]: High | Best Dosage [9]: High | Best Dosage ([10]; Rabbit): Low | Best Dosage ([10]; Rat): Low | serious adverse events [11]: no serious adverse events reported | stability [12]: more stable at higher pHs | Best Dosage [13]: High | oxygen partial pressure, duration of maximum [14]: sustained maximum oxygen partial pressure | Best Dosage [15]: High | Best Dosage [16]: Low | Best Dosage ([17]; Mouse): Low | Best Dosage ([17]; Rat): Low
